# Entries after “also recorded” stand apart in the source; their conditions may differ.
# Assays:
# HCC2279 cells = experiment: Crystal Violet staining of HCC2279 cells; type: cell-based, human; conditions: 48 h
# Experimental: To test whether the dsRNA mediated activation of the stress-activated protein kinase cascade also leads to cell death in HCC2279 cells, the cells were plated in a 12 well multi-well plated, treated with siRNA si5 or as a control with siRNA si6 and stained with Crystal Violet 48 h later. […] The data presented as well as the widespread expression of Tak1-D in tissues like lung, brain, liver, and prostate (Dempsey et al., 2000) makes targeted activation of TAK1-D by specific dsRNA an interesting treatment opportunity for these types of cancer.
# TLK1 [1] = experiment: TLK1 protein level in NCI-H460 cells (Western blot); type: cell-based, human; conditions: first 6 h after addition
# Text: FIGS. 3A-D illustrate the timecourse as well the downstream signaling events of dsRNA mediated Tak1-D activation in more detail. […] This activation is not triggered by siRNA si6 or by the non-targeting scrambled sequence siNT, even at later timepoints. […] The activation of TAK1-D leads to a phosphorylation of the MAPKKs of both stress activated protein kinase signaling pathways, indicated by the occurrence of activation phosphorylation on MKK3/6 and MKK4 (FIG. 3A). Consecutively activation of MKK3/6 leads to phosphorylation and activation of the p38 MAPK, while activation of MKK4 phosphorylates and activates SAPK/JNK. These mitogen activated protein kinase kinases phosphorylate and activate their respective substrates p38 MAP kinase and SAPK/JNK. […] This provided further confirmation, apart from the rapid occurrence of TAK1-D phosphorylation, that gene silencing effects of the siRNAs play no role in the phenomena described.
# p38 MAP kinase pathway = experiment: Activation of the p38 MAP kinase pathway in H460 cells (Western blot); type: cell-based, human; conditions: for activation of the p38 MAP kinase pathway (phosphorylation of MKK3/6, p38 MAPK): H460 cells, 20 nM RNA, 2-6 h
# Text: Both siRNAs were directed against the mRNA of the same gene TLK1.
# H460 cells [2] = experiment: Protein synthesis by [35S] methionine incorporation in H460 cells; type: cell-based, human; conditions: for protein synthesis by [35S] methionine incorporation: 4 h
# Experimental: On the next day cells were incubated with the dsRNAs for the given amount of time. Ten minutes prior to labeling the cell culture medium was replaced with cystein/methionine free RPMI. Thereafter, cells were incubated for 15 minutes in cystein/methionine free RPMI containing 40 μC/ml [^35S] methionine (Perkin Elmer, Waltham, Mass., USA).
# In order to measure the incorporated radionuclide, cells were washed 5 times with 5% TCA, once with 70% ethanol and the proteins were solubilized in SDS-PAGE sample buffer. After addition of the samples to a liquid scintillation cocktail, [^35S] activity was determined in a LS6500 scintillation counter (Beckmann).
# For SDS-PAGE cells were washed 3 times with PBS and proteins were solubilized by heating in non reducing sample buffer. After determination of the protein concentration (D protein assay, Bio-Rad, Hercules, Calif., USA) samples were reduced by the addition of DTT to a final concentration of 100 mM and separated in a 4-12% Bis-Tris gradient gel (NuPAGE, Invitrogen). The gel was dried after Coomassie blue staining and autoradiography was performed using a phosphoimager (Typhoon 9410, Amerham).
# NF-κB = NF-κB activation in H460 cells (EMSA, IKKα/β phosphorylation); type: cell-based, human; conditions: hours after transfection (3 h, 6 h)
# Experimental: EMSA. Electrophoretic mobility shift assays for NFκB were performed as described previously (Kurland et al., 2001) using 3.5 μg of nuclear protein for each reaction.
# FIG. 16B illustrates the effect of dominant-negative TAK1-D/K63W on dsRNA si5 induced cell death. […] As a slight growth inhibition of si5 transfected H460-K63W cells can be observed in FIG. 16B it is interesting to ask whether this is caused by an incomplete suppression of TAK1-D activity or by activation of other dsRNA-dependent stress pathways. To answer this question, the activation of the transcription factor NF-κB by dsRNA si5 was tested, as it well established that dsRNA triggered activation of PKR (Zamanian-Daryoush et al., 2000), TLR3 (Jiang et al., 2003), and RIG1/Mda-5 (Hiscott et al., 2006) leads to a downstream activation of NF-κB.
# H460 cells [3] = experiment: Survival assay of H460 cells, Crystal Violet staining
# TLK1 [4] = experiment: TLK1 post-transcriptional silencing in HeLa cells (Western blot); type: cell-based, human; conditions: 48 h after transfection
# Experimental: In order to test whether dsRNA molecules show the same cellular uptake and stability the efficiency of these molecules to post-transcriptionally silence the expression of TLK1 was determined as si6 as well as si5 siRNA are directed against the mRNA of this protein. […] As a loading control the unchanged expression levels of TAK1-A/B and 3-tubulin are shown in the two lower panels.
# p38 = p38 activation in mouse peritoneal macrophages; type: cell-based; conditions: 4 h
# Experimental: It has been reported (Dempsey et al., 2000) that the splicing variant D of TAK1 could not be detected in many cell lines despite its expression in the parental tissue, most probably due to downregulation of the transcript during in vitro culture. Therefore, the inventors used macrophages 24 h after obtaining them from athymic NCR-NU/NU female mice by peritoneal lavage.
substance,measurement,setting,value
si5: 21-mer siRNA against TLK1 mRNA: GGCUUUUGACCUUUAUGAAtt (SEQ ID NO: 2) / ttCCGAAAACUGGAAAUACUU (SEQ ID NO: 3) (sense GGCUUUUGACCUUUAUGAATT; antisense TTCCGAAAACUGGAAAUACUU; chemistry not given here; one strand is listed 3' to 5'),"effect on cells, Crystal Violet","HCC2279 cells; HCC2279, 5 nM",small effect on cell growth
same,"effect on cells, Crystal Violet","HCC2279 cells; HCC2279, 10 to 20 nM",significant cell death
same,protein levels of Tlk1,TLK1 [1],remain unchanged
same,induced activating phosphorylation of p38 MAPK in cells expressing dominant-negative Tak1-D (K63W),"p38 MAP kinase pathway; H460, adenoviral K63W vs β-galactosidase vector, 20 nM dsRNA 4 h",significantly reduced
same,"activation of the p38 MAP kinase pathway (phosphorylation of MKK3/6, p38 MAPK)",p38 MAP kinase pathway,activation of the p38 MAP kinase pathway; also recorded: able to activate Tak1-D and consecutively p38 MAPK; also recorded: activate the pathway most effectively
same,"activation of the p38 MAP kinase pathway (phosphorylation of MKK3/6, p38 MAPK)",p38 MAP kinase pathway; listed as Si5,phosphorylation and activation of MKK3/6 as well as MKK4
same,activating phosphorylation of p38 MAP kinase in TAK1-D/K63W transfected cells,"p38 MAP kinase pathway; H460 stably transfected with K63W vs wt and vector, 4 h",very significant reduction; also recorded: significantly reduced
same,"[35S] methionine incorporation, of its initial value","H460 cells [2]; H460, after 4 hours, scintillation counting",about 60%
same,time until [35S] methionine incorporation significantly reduced,"H460 cells [2]; H460, after transfection",≤ 1 h
same,"[35S] methionine incorporation, of initial value","H460 cells [2]; H460, within first 4 hours, SDS-PAGE autoradiography",about 50%
same,protein synthesis by [35S] methionine incorporation,"H460 cells [2]; TAK1-D/K63W transfected H460, 10 nM",could not be observed; also recorded: no change in protein synthesis can be detected
same,protein synthesis by [35S] methionine incorporation,"H460 cells [2]; wild-type and vector transfected H460, 10 nM",significant reduction in mRNA translation; also recorded: drops significantly
same,activation of NF-κB (EMSA of nuclear protein),NF-κB,neither si5 nor si6 transfection lead to an activation; also recorded: does not activate NF-κB
same,"effect on cells, Crystal Violet","H460 cells [3]; H460, 5 nM, 48 h",slight growth retardation
same,"effect on cells, Crystal Violet","H460 cells [3]; H460, 10 nM to 20 nM, 48 h",significant cell kill
same,"cell death, crystal violet","H460 cells [3]; H460-wt and H460-vec, 5 or 10 nM, 48 h",massive cell death
same,"cell death, crystal violet","H460 cells [3]; TAK1-D/K63W transfected H460, 5 or 10 nM, 48 h",survive the treatment and not
same,expression level of TLK1,TLK1 [4],drastically reduce the expression level; also recorded: reduced to almost undetectable levels; also recorded: very significant reduction in the expression of TLK1
same,p38 activation by phosphorylation,p38,p38 is activated by phosphorylation
si6: control 21-mer siRNA against TLK1 mRNA: GGGUGGAAAUGGCUCAAGUtt (SEQ ID NO: 4) / gtCCCACCUUUACCGAGUUCA (SEQ ID NO: 5) (sense GGGUGGAAAUGGCUCAAGUTT; antisense GTCCCACCUUUACCGAGUUCA; chemistry not given here; one strand is listed 3' to 5') [reference compound],"toxicity, crystal violet","HCC2279 cells; HCC2279, concentration range tested",no significant toxicity
same,protein levels of Tlk1,TLK1 [1],remain unchanged
same,"activation of the p38 MAP kinase pathway (phosphorylation of MKK3/6, p38 MAPK)",p38 MAP kinase pathway,had no effect; also recorded: does not occur; also recorded: No activation
same,inhibition of translation,"H460 cells [2]; H460, SDS-PAGE autoradiography",No inhibition of translation was observed
same,[35S] methionine incorporation,"H460 cells [2]; H460, scintillation counting",remained unchanged
same,activation of NF-κB (EMSA of nuclear protein),NF-κB,neither si5 nor si6 transfection lead to an activation
same,"cell death, crystal violet","H460 cells [3]; H460, 48 hours after transfection, shRNA experiment",no cell death or growth inhibition could be observed
same,"toxicity, crystal violet","H460 cells [3]; H460-wt, H460-vec, H460-K63W, 48 h",no significant toxicity can be observed
same,expression level of TLK1,TLK1 [4],drastically reduce the expression level; also recorded: reduced to almost undetectable levels; also recorded: very significant reduction in the expression of TLK1
same,p38 activation by phosphorylation,p38,not

# Reference: patent US8163709B2, “TAK1-D mediated induction of cell death in human cancer cells by specific sequence short double-stranded RNAS” (Board of Regents of the University of Texas System, priority 2008, dated 2012)
